Structures can show the parent of a compound that is named as a salt.

Sequence of Active Human ERK2 (hERK2) (P28482 whole entry): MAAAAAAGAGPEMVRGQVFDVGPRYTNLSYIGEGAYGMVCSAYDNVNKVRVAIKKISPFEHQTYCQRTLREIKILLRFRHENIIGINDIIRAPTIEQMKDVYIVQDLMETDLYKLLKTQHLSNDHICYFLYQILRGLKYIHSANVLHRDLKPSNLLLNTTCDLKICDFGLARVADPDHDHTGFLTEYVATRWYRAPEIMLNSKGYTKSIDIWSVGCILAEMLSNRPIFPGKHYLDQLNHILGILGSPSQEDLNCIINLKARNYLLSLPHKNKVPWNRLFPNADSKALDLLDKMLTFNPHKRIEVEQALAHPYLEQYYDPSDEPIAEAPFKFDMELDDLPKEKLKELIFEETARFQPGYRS

The target in this experiment is Active Human ERK2 (hERK2) (Homo sapiens (Human), UniProt P28482). The experiment can be described thus: Active Human ERK2 (hERK2) Activity Assay (IMAP-FP). The format is biochemical. To be noted: phosphorylated active hERK2 0.5 nM, 30 μM ATP, 10 point titration, read-out: ERK 2 Human average IC50. How it is done: Assays Active Human ERK2 (hERK2) Activity Assay:
Activated ERK2 activity was determined in an IMAP-FP assay (Molecular Devices). Using this assay format, the potency (IC50) of each compound was determined from a 10 point (1:3 serial dilution, 3 μM starting compound concentration) titration curve using the following outlined procedure. […] Following a 15 minute compound & enzyme incubation, each reaction was initiated by the addition of 10 μL kinase buffer containing 2.45 μM ERK2 IMAP substrate peptides (2.25 μM-unlabeled peptide and 200 nM-labeled peptide, and 75 μM ATP. The final reaction in each well of 25 μL consists of 0.5 nM hERK2, 900 nM unlabeled peptide, 80 nM labeled-peptide, and 30 μM ATP. Phosphorylation reactions were allowed to proceed for 60 minutes and were immediately quenched by the addition of 60 μL IMAP detection beads (1:1000 dilutions) in IMAP binding buffer (Molecular Devices) with 24 mM NaCl. Plates were read on EnVision reader after 60 minutes binding equilibration using Fluorescence Polarization protocol (Perkin Elmer).
On to `Cn1cc(-c2n[nH]c3cc4[nH]c(=O)ccc4cc23)cn1` [Example 4, 3-(1-methyl-1H-pyrazol-4-yl)-1,8-dihydro-7H-pyrazolo[4,3-g]quinolin-7-one], for which the 50% inhibitory concentration (IC50) – broadly, the concentration needed to halve the response being measured – was 0.3 nM.

`O=c1ccc2cc3cn[nH]c3cc2[nH]1` [Example 5, 1,8-dihydro-7H-pyrazolo[4,3-g]quinolin-7-one]: the half-maximal inhibitory concentration (IC50) stood at 228 nM.

Regarding `Cn1cc(-c2n[nH]c3cc4[nH]c(=O)c(Br)cc4cc23)cn1` [Example 6, 6-bromo-3-(1-methyl-1H-pyrazol-4-yl)-1,8-dihydro-7H-pyrazolo[4,3-g]quinolin-7-one trifluoroacetate], the concentration for half-maximal inhibition (IC50) was 0.3 nM.

Consider `Cn1cc(-c2n[nH]c3cc4[nH]c(=O)c(Cc5ccccc5)cc4cc23)cn1` [Example 7, 6-benzyl-3-(1-methyl-1H-pyrazol-4-yl)-1,8-dihydro-7H-pyrazolo[4,3-g]quinolin-7-one], for which the concentration for half-maximal inhibition (IC50) came to 0.3 nM.

On to `Cc1cc(-c2n[nH]c3cc4c(cc23)CCCC(=O)N4)ccn1` [Example 9, 3-(2-methylpyridin-4-yl)-5,6,7,9-tetrahydroazepino[3,2-f]indazol-8(1H)-one], for which the IC50 was determined as 252 nM.

In the case of `Cc1cc(-c2n[nH]c3cc4c(cc23)CN([C@H](C)c2ccc(F)cc2)C(=O)N4)ccn1` [Example 10, (R)-6-(1-(4-fluorophenyl)ethyl)-3-(2-methylpyridin-4-yl)-5,6-dihydro-1H-pyrazolo[4,3-g]quinazolin-7(8H)-one], the IC50 worked out at 0.3 nM.

Turning to `Cc1cc(-c2n[nH]c3cc4c(cc23)CCN(Cc2ccc(F)cc2)C(=O)N4O)ccn1` [Example 11, 7-(4-fluorobenzyl)-9-hydroxy-3-(2-methylpyridin-4-yl)-5,6,7,9-tetrahydro-[1,3]diazepino[5,4-f]indazol-8(1H)-one], the IC50 turned out to be 459 nM.

In the case of `Cc1cc(-c2n[nH]c3cc4c(cc23)CCN([C@H](C)c2ccc(F)cc2)C(=O)N4)ccn1` [Example 12, (R)-7-(1-(4-fluorophenyl)ethyl)-3-(2-methylpyridin-4-yl)-5,6,7,9-tetrahydro-[1,3]diazepino[5,4-f]indazol-8(1H)-one], the IC50 amounted to 72 nM.

As for `Cc1cc(-c2n[nH]c3cc4c(cc23)CNC(=O)N4)ccn1` [Example 13, 3-(2-methylpyridin-4-yl)-5,6-dihydro-1H-pyrazolo[4,3-g]quinazolin-7(8H)-one], the half-inhibitory concentration (IC50) was 0.6 nM.

In the case of `Cc1cc(-c2n[nH]c3cc4c(cc23)CN(Cc2ccccc2)C(=O)N4)ccn1` [Example 14, 6-benzyl-3-(2-methylpyridin-4-yl)-5,6-dihydro-1H-pyrazolo[4,3-g]quinazolin-7(8H)-one], the IC50 is 0.5 nM.

On to `C[C@H](c1ccccc1)n1c(=O)[nH]c2cc3[nH]nc(-c4ccc5nnn(C)c5c4)c3cc2c1=O` [Example 15, (R)-3-(1-methyl-1H-benzo[d][1,2,3]triazol-6-yl)-6-(1-phenylethyl)-1H-pyrazolo[4,3-g]quinazoline-5,7(6H,8H)-dione], for which the IC50 came to 1.7 nM.

As for `Cc1cc(-c2n[nH]c3cc4c(cc23)CN(C2CCCOc3ccccc32)C(=O)N4)ccn1` (stereo not shown) [Example 16, 3-(2-methylpyridin-4-yl)-6-(2,3,4,5-tetrahydrobenzo[b]oxepin-5-yl)-5,6-dihydro-1H-pyrazolo[4,3-g]quinazolin-7(8H)-one], the concentration for half-maximal inhibition (IC50) was 4.8 nM.

On to `COC[C@H](c1ccc(F)cc1)N1Cc2cc3c(-c4ccnc(C)c4)n[nH]c3cc2NC1=O` [Example 17], for which the 50% inhibitory concentration (IC50) was found to be 0.7 nM.

For the molecule `COc1ccccc1CN1Cc2cc3c(-c4ccnc(C)c4)n[nH]c3cc2NC1=O` [Example 18, 6-(2-methoxybenzyl)-3-(2-methylpyridin-4-yl)-5,6-dihydro-1H-pyrazolo[4,3-g]quinazolin-7(8H)-one], the concentration for half-maximal inhibition (IC50) came out at 0.8 nM.

As to `COc1ccccc1CCN1Cc2cc3c(-c4ccnc(C)c4)n[nH]c3cc2NC1=O` [Example 19, 6-(2-methoxyphenethyl)-3-(2-methylpyridin-4-yl)-5,6-dihydro-1H-pyrazolo[4,3-g]quinazolin-7(8H)-one], the half-maximal inhibitory concentration (IC50) worked out at 2.3 nM.

As for `Cc1cc(-c2n[nH]c3cc4c(cc23)CN([C@H](C)c2ccccc2)C(=O)N4)ccn1` [Example 20, (R)-3-(2-methylpyridin-4-yl)-6-(1-phenylethyl)-5,6-dihydro-1H-pyrazolo[4,3-g]quinazolin-7(8H)-one 2,2,2-trifluoroacetate], the half-maximal inhibitory concentration (IC50) stood at 0.3 nM.

Turning to `Cc1cc(-c2n[nH]c3cc4c(cc23)CN(Cc2cccc(C)n2)C(=O)N4)ccn1` [Example 21, 6-((6-methylpyridin-2-yl)methyl)-3-(2-methylpyridin-4-yl)-5,6-dihydro-1H-pyrazolo[4,3-g]quinazolin-7(8H)-one], the half-inhibitory concentration (IC50) is 0.6 nM.

Turning to `Cc1cc(-c2n[nH]c3cc4c(cc23)CN([C@@H]2CCCCc3ccccc32)C(=O)N4)ccn1` [Example 22, (R)-3-(2-methylpyridin-4-yl)-6-(6,7,8,9-tetrahydro-5H-benzo[7]annulen-5-yl)-5,6-dihydro-1H-pyrazolo[4,3-g]quinazolin-7(8H)-one], the IC50 was found to be 24 nM.

For the molecule `Cc1cc(-c2n[nH]c3cc4[nH]c(=O)n([C@H](C)c5ccccc5)c(=O)c4cc23)ccn1` [Example 23, (R)-3-(2-methylpyridin-4-yl)-6-(1-phenylethyl)-1H-pyrazolo[4,3-g]quinazoline-5,7(6H,8H)-dione], the IC50 is 3.7 nM.

With `O=c1ccc2cc3c(N4CCOCC4)n[nH]c3cc2[nH]1` [Example 24, 3-morpholino-1H-pyrazolo[4,3-g]quinolin-7(8H)-one], the IC50 came out at 12 nM.

For `O=c1ccc2cc3c(N4CCCCC4)n[nH]c3cc2[nH]1` [Example 25, 3-(piperidin-1-yl)-1H-pyrazolo[4,3-g]quinolin-7(8H)-one], the IC50 is 42 nM.

As to `C[C@H](c1ccccc1)N1Cc2cc3c(-c4ccc(C#N)nc4)n[nH]c3cc2NC1=O` [Example 27, (R)-5-(7-oxo-6-(1-phenylethyl)-5,6,7,8-tetrahydro-1H-pyrazolo[4,3-g]quinazolin-3-yl)picolinonitrile], the IC50 worked out at 10 nM.

In the case of `COc1ncc(-c2n[nH]c3cc4c(cc23)CN([C@H](C)c2ccccc2)C(=O)N4)cn1` [Example 28, (R)-3-(2-methoxypyrimidin-5-yl)-6-(1-phenylethyl)-5,6-dihydro-1H-pyrazolo[4,3-g]quinazolin-7(8H)-one formate], the IC50 was 0.6 nM.

Regarding `CC(=O)Nc1n[nH]c2cc3c(cc12)CN([C@H](C)c1ccccc1)C(=O)N3` [Example 34, (R)-N-(7-oxo-6-(1-phenylethyl)-5,6,7,8-tetrahydro-1H-pyrazolo[4,3-g]quinazolin-3-yl)acetamide], the IC50 was 2.3 nM.

Turning to `COc1n[nH]c2cc3c(cc12)CN([C@H](C)c1ccccc1)C(=O)N3` [Example 35, (R)-3-methoxy-6-(1-phenylethyl)-5,6-dihydro-1H-pyrazolo[4,3-g]quinazolin-7(8H)-one], the IC50 turned out to be 114 nM.

`COCCOc1n[nH]c2cc3c(cc12)CN([C@H](C)c1ccccc1)C(=O)N3` [Example 36, (R)-3-(2-methoxyethoxy)-6-(1-phenylethyl)-5,6-dihydro-1H-pyrazolo[4,3-g]quinazolin-7(8H)-one]: the half-inhibitory concentration (IC50) amounted to 6.4 nM.

On to `C[C@H](c1ccccc1)N1Cc2cc3c(OCCO)n[nH]c3cc2NC1=O` [Example 37, (R)-3-(2-hydroxyethoxy)-6-(1-phenylethyl)-5,6-dihydro-1H-pyrazolo[4,3-g]quinazolin-7(8H)-one], for which the half-inhibitory concentration (IC50) came out at 20 nM.

As for `C[C@H](c1ccccc1)N1Cc2cc3c(OC4CCOC4)n[nH]c3cc2NC1=O` (stereo partly drawn) [Example 38, 6-((R)-1-phenylethyl)-3-((tetrahydrofuran-3-yl)oxy)-5,6-dihydro-1H-pyrazolo[4,3-g]quinazolin-7(8H)-one], the half-inhibitory concentration (IC50) amounted to 21 nM.

Regarding `C[C@H](c1ccccc1)N1Cc2cc3c(OC4CCOCC4)n[nH]c3cc2NC1=O` [Example 39, (R)-6-(1-phenylethyl)-3-((tetrahydro-2H-pyran-4-yl)oxy)-5,6-dihydro-1H-pyrazolo[4,3-g]quinazolin-7(8H)-one], the IC50 is 10 nM.

In the case of `C[C@H](c1ccccc1)N1Cc2cc3c(C4CC4)n[nH]c3cc2NC1=O` [Example 40, (R)-3-cyclopropyl-6-(1-phenylethyl)-5,6-dihydro-1H-pyrazolo[4,3-g]quinazolin-7(8H)-one], the IC50 was found to be 24 nM.

In the case of `C[C@H](c1ccccc1)N1Cc2cc3c(-c4ccnc(F)c4)n[nH]c3cc2NC1=O` [Example 41, (R)-3-(2-fluoropyridin-4-yl)-6-(1-phenylethyl)-5,6-dihydro-1H-pyrazolo[4,3-g]quinazolin-7(8H)-one], the IC50 came out at 0.3 nM.

With `C[C@H](c1ccccc1)N1Cc2cc3c(N4CCOCC4)n[nH]c3cc2NC1=O` [Example 42, (R)-3-morpholino-6-(1-phenylethyl)-5,6-dihydro-1H-pyrazolo[4,3-g]quinazolin-7(8H)-one], the IC50 came to 9 nM.

With `C[C@H](c1ccccc1)N1Cc2cc3c(I)n[nH]c3cc2NC1=O` [Example 43, (R)-3-iodo-6-(1-phenylethyl)-5,6-dihydro-1H-pyrazolo[4,3-g]quinazolin-7(8H)-one], the IC50 came to 48 nM.

For `C[C@H](c1ccccc1)N1Cc2cc3c(N4CCc5ncsc5C4)n[nH]c3cc2NC1=O` [Example 47, (R)-3-(6,7-dihydrothiazolo[5,4-c]pyridin-5(4H)-yl)-6-(1-phenylethyl)-5,6-dihydro-1H-pyrazolo[4,3-g]quinazolin-7(8H)-one], the concentration for half-maximal inhibition (IC50) turned out to be 24 nM.

For the origin of these results see patent publication US10065967B2, “Compounds that are ERK inhibitors” (Merck Sharp & Dohme Corp., priority 2013, dated 2018).
